Assay results taken from patent publication US6001853A, “Hydroxylamine compositions for the prevention or retardation of cataracts” (priority 1998, dated 1999).
Where two headings read alike, the source gives them in different places.

Legend:
experimental cataracts = settings: cited from earlier work
[1] = tested on: cataracts in x-ray irradiated rats; settings: cited from earlier work
lens proteins = settings: in vitro; cited from earlier work
rat lenses [2] = assay: Rubidium-86 accumulation by cultured rat lenses (H2O2 stress); assay type: cell-based, Sprague-Dawley rat; settings: for prevention of decrement in Rb-86 accumulation associated with H2O2 exposure: 0.25 mM H2O2, agent added at beginning of assay; for effect on Rb-86 accumulation of control lenses: added to medium of control lenses at beginning of assay, no H2O2
Procedure: (§1) Such assays are accepted as an indication of the in vivo effect of a drug in retarding the development of cataracts.
(§2) The techniques described in references 10 and 11 were used in this assay. Rat lenses used in these studies were obtained from Sprague-Dawley male rats. The lenses were incubated in 24-well clusters in modified TC-199 medium (prepared as described in Zigler and Hess, Exp. Eye Res. 41:67, 1985) and placed in a 37° C. incubator with a 95% air/5% CO2 humidified atmosphere. The lenses were incubated in about 2.0 ml of culture medium, which was adjusted to about 300 milliosmoles. The assays were usually of 22 hours duration, and tracer levels of ^86 Rb or tritiated choline were added at 18 hours so that the tracer was present during the last four hours of the assay.
Two potential anti-cataract agents were tested in this experiment: E-64 (a protease inhibitor) and pantetheine (a putative phase separation inhibitor) were added to the culture medium at the beginning of the assay.
(§3) The experiment was performed essentially as described for Example 2, except that TEMPOL-H was added at 3 or 4 mM or was added at 3 mM together with MPG at either 0.5 or 1 mM.

[3] = Systemic/ocular delivery of MPG by osmotic pump, detection in the eye; assay type: in vivo, Sprague Dawley albino rats; settings: subcutaneous, intraperitoneal and ocular routes; 2 ml of 100 mM over 7 or 14 days
Procedure: (§4) A 2 ml volume of 100 mM TEMPOL-H was provided in an ALZET osmotic pump, available from Alza Corporation of Palo Alto, Calif. The pump was programmed to deliver the 2 ml dose continuously (down an osmotic gradient) over a period of either 7 or 14 days.
The reducing agent MPG was also delivered to the subjects by subcutaneous, intraperitoneal and ocular routes, as described in Example 7, through an implanted osmotic pump. A 2 ml volume of 100 mM MPG was provided in the pump and delivered over a period of 7 days or 14 days.

rat lenses [4] = assay: Tritiated choline accumulation by cultured rat lenses (H2O2 stress); assay type: cell-based, Sprague-Dawley rat; settings: for reduction of the H2O2-induced decrement of tritiated choline concentration: 0.25 mM H2O2, MPG 1 mM, TEMPOL-H 5 mM
Procedure: as §1, §2
(§5) Rat lenses were cultured as described in reference 11 and Example 1. H2 O2 was added to experimental cultures to a concentration of 0.25 mM. Carnosine at 1 mM, MPG at 1 mM, or TEMPOL-H at 5 mM was added to some of the treated lenses at the beginning of the culture assay.
as §3

cells = settings: reported by Mitchell and colleagues; cited from earlier work
rat lenses [5] = assay type: cell-based; settings: 1.0 mM H2O2 plus 4 mM TEMPOL-H, 24 hours
Procedure: Lenses were cultured as in the above examples.

[6] = Systemic delivery of TEMPOL-H by osmotic pump, plasma and eye concentrations; assay type: in vivo, Sprague Dawley albino rats; settings: subcutaneous osmotic pump, 2 ml of 100 mM over 7 or 14 days
Procedure: as §4
In the rats who received subcutaneous delivery of the hydroxylamine, plasma TEMPOL-H concentrations of 0.25 μM were observed.

lens = assay: Lens penetration and redox state by EPR of lens homogenate; assay type: in vitro ADME, rat
Description: TEMPOL-H is the reduced form of the nitroxide TEMPOL, which is a stable free radical detectable by electron paramagnetic resonance (EPR) spectroscopy, as in reference 12. TEMPOL-H can be readily converted to TEMPOL by oxidation with ferricyanide, and then can be quantitated by EPR spectroscopy. This provides a ready means of determining whether TEMPOL-H is present in experimental lenses and whether it is in the oxidized or reduced state. […] TEMPOL-H can in turn be oxidized to the nitroxide by dehydrogenases and activated oxygen species, such as singlet oxygen.
as §5
Following lens incubation, lenses were rinsed, then homogenized in buffer and aliquots of the homogenate analyzed by EPR. […] Only following treatment of the lens extract with ferricyanide was the nitroxide detected.

In the case of CC(=O)Oc1ccccc1C(=O)O [Aspirin], the “delay of experimental cataracts” value (experimental cataracts) is listed as “shown to delay experimental cataracts”.

In the case of O=C(O)COc1nn(Cc2ccccc2)c2ccccc12 [Bendazac], the “delay of onset of cataracts” value [1] is given as “delay the onset of cataracts in x-ray irradiated rats” and the “protection of lens proteins” value (lens proteins) is given as “found to protect lens proteins in vitro”.

In the case of CC(C)CC(NC(=O)C1OC1C(=O)O)C(=O)NCCCCNC(=N)N (stereo not shown) [E-64], the “prevention of decrement in Rb-86 accumulation associated with H2O2 exposure” value (rat lenses [2]) is reported as “neither prevented the decrement in accumulation” and the “effect on Rb-86 accumulation of control lenses” value (rat lenses [2]) is reported as “small negative effect on Rb-86 accumulation”.

In the case of OO [H2 O2, hydrogen peroxide], the “Rb-86 accumulation (internal concentration relative to concentration in the medium)” value (rat lenses [2]; H2O2 bolus 0.25 mM, normal control lenses more than 7-fold) is reported as 5 fold.

In the case of CC(S)C(=O)NCC(=O)O (stereo not shown) [MPG, N-(2-mercaptopropionyl) glycine], the “detection of MPG in the eye” value [3] is reported as “detected in the eye” and the “reduction of the H2O2-induced decrement of tritiated choline concentration” value (rat lenses [4]) is reported as “significant reduction in the decrement of tritiated choline concentration”.

In the case of CC1(C)CC(O)CC(C)(C)N1[O] [TEMPOL, 4-hydroxy-2,2,6,6-tetramethylpiperidin-1-yloxy], the “protection of cells from oxidative damage” value (cells) is given as “protects cells from oxidative damage”.

For CC1(C)CC(O)CC(C)(C)N1O [TEMPOL-H], the “inhibition of opacification of cultured lenses” value (rat lenses [5]) is listed as “clearly and consistently was found to inhibit opacification of the cultured lenses”, the “effect on Rb-86 accumulation in lenses exposed to H2O2, dose response / combination” value (rat lenses [2]; TEMPOL-H 3 or 4 mM, or 3 mM with MPG 0.5 or 1 mM (FIG. 6)) is listed as “dose response effect” and the “protection of cells from oxidative damage” value (cells) is listed as “affords no such protection”. For the same compound, the concentration ([6]; read-out: concentration in the eye) was 20 nM, the concentration ([6]; read-out: plasma TEMPOL-H concentration) was 250 nM and the “penetration of the lens from the culture medium” value (lens; EPR after lens incubation, TEMPOL-H 5 mM) was “does penetrate the lens from the culture medium”. For the same compound, the “redox state within the lens” value (lens; nitroxide detected only following ferricyanide treatment of lens extract) was “the highly reducing environment within the lens keeps the compound in the reduced state”, the “reduction of the H2O2-induced decrement of tritiated choline concentration” value (rat lenses [4]) was “significant reduction in the decrement of tritiated choline concentration” and the “effect on 3H-choline accumulation in lenses exposed to H2O2, dose response / combination” value (rat lenses [4]; TEMPOL-H 3 or 4 mM, or 3 mM with MPG 0.5 or 1 mM (FIG. 5)) was “dose response effect”.

For CC(=O)Nc1ccc(O)cc1 [acetaminophen], the “delay of experimental cataracts” value (experimental cataracts) is listed as “shown to delay experimental cataracts”.

In the case of CC(C)Cc1ccc(C(C)C(=O)O)cc1 (stereo not shown) [ibuprofen], the “delay of experimental cataracts” value (experimental cataracts) is listed as “shown to delay experimental cataracts”.

With CC(C)(CO)[C@@H](O)C(=O)NCCC(=O)NCCS [pantetheine] the “prevention of decrement in Rb-86 accumulation associated with H2O2 exposure” value (rat lenses [2]) was “neither prevented the decrement in accumulation” and the “effect on Rb-86 accumulation of control lenses” value (rat lenses [2]) was “small negative effect on Rb-86 accumulation”.
